Reference: patent US6479435B1, “Diaryl ethers and processes for their preparation and herbicidal and desiccant compositions containing them” (ISK Americas Incorporated, priority 1997, dated 2002)

Columns and labels:
Format in all cases: in vivo
[1] = system: upland rice (Oryza sp., var.Tebonnet, RICE); assay: Pre-emerge greenhouse test, crop damage rating; conditions: 14 days after application, rating scale 0-100; for RICE crop damage rating: Rate 500 g al/ha
How it was run: (§1)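 Visual 0–100 injury rating (100 = all plants dead) taken 14 days after treatment. Rates of 125–1000 g ai/ha in acetone, 187 l/ha, were sprayed onto soil one day post-sowing; pots were surface-watered to incorporate, then bottom-watered.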

[2] = system: field corn (Zea mays L., var. Dekalb 535, CORN); assay: Pre-emerge greenhouse test, crop damage rating; conditions: 14 days after application, rating scale 0-100; for CORN crop damage rating: Rate 500 g al/ha
How it was run: as §1

[3] = system: soybean (Glycine max L., var. Pella 86, SOY); assay: Pre-emerge greenhouse test, crop damage rating; parameters: key to SOY crop damage rating: 0 = no damage, 100 = complete death of all plants; conditions: 14 days after application, rating scale 0-100
How it was run: as §1

[4] = system: ivyleaf morningglory (Ipomoea hederacea, IPOHE); assay: Pre-emerge greenhouse herbicide test, phytotoxicity rating; conditions: 14 days after application, rating scale 0-100
How it was run: as §1

[5] = system: redroot pigweed (Amaranthus retroflexus, AMARE); assay: as above; conditions: 14 days after application, rating scale 0-100
How it was run: as §1

[6] = system: barnyardgrass (Echinochloa crusgalli, ECHCG); assay: as above; conditions: 14 days after application, rating scale 0-100
How it was run: as §1

[7] = system: Johnsongrass (Sorghum halepense, SORHA); assay: as above; conditions: 14 days after application, rating scale 0-100
How it was run: as §1

[8] = system: sicklepod (Cassia obtusifolia, CASOB); assay: as above; conditions: 14 days after application, rating scale 0-100
How it was run: as §1

[9] = system: velvetleaf (Abutilon theophrasti, ABUTH); assay: as above; conditions: 14 days after application, rating scale 0-100
How it was run: as §1

[10] = system: lambsquarters (Chenopodium album, CHEAL); assay: as above; conditions: 14 days after application, rating scale 0-100
How it was run: as §1

[11] = system: large crabgrass (Digitaria sanguinalis, DIGSA); assay: as above; conditions: 14 days after application, rating scale 0-100
How it was run: as §1

[12] = system: green foxtail (Setaria viridis, SETVI); assay: as above; conditions: 14 days after application, rating scale 0-100
How it was run: as §1

[13] = system: common ragweed (Ambrosia artemisiifolia L., AMBEL); assay: as above; conditions: 14 days after application, rating scale 0-100
How it was run: as §1

[14] = system: soybean (Glycine max L., var. Pella 86, SOY); assay: Post-emerge greenhouse test, crop damage rating; parameters: key to crop damage rating SOY: 0-100 scale: 0 = no damage, 100 = complete death of all plants; conditions: 14 days after application; for crop damage rating SOY: scale 0-100
How it was run: (§2)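 Scores use a 0 (no damage) to 100 (complete kill) scale, taken 14 days after a foliar spray. Acetone solutions with 0.25% v/v non-ionic surfactant were applied by track sprayer at 187 l/ha and 63-1000 g ai/ha to bottom-watered 2-3 leaf plants.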

[15] = system: upland rice (Oryza sp., var.Tebonnet, RICE); assay: Post-emerge greenhouse test, crop damage rating; conditions: 14 days after application; for crop damage rating RICE: scale 0-100
How it was run: as §2

[16] = system: field corn (Zea mays L., var. Dekalb 535, CORN); assay: Post-emerge greenhouse test, crop damage rating; conditions: 14 days after application; for crop damage rating CORN: scale 0-100
How it was run: as §2

[17] = system: common ragweed (Ambrosia artemisiifolia L., AMBEL); assay: Post-emerge greenhouse herbicide test, phytotoxicity rating; conditions: 14 days after application; for phytotoxicity rating AMBEL: scale 0-100
How it was run: as §2

[18] = system: ivyleaf morningglory (Ipomoea hederacea, IPOHE); assay: as above; conditions: 14 days after application; for phytotoxicity rating IPOHE: scale 0-100
How it was run: as §2

[19] = system: redroot pigweed (Amaranthus retroflexus, AMARE); assay: as above; conditions: 14 days after application; for phytotoxicity rating AMARE: scale 0-100
How it was run: as §2

[20] = system: barnyardgrass (Echinochloa crusgalli, ECHCG); assay: as above; conditions: 14 days after application; for phytotoxicity rating ECHCG: scale 0-100
How it was run: as §2

[21] = system: Johnsongrass (Sorghum halepense, SORHA); assay: as above; conditions: 14 days after application; for phytotoxicity rating SORHA: scale 0-100
How it was run: as §2

[22] = system: sicklepod (Cassia obtusifolia, CASOB); assay: as above; conditions: 14 days after application; for phytotoxicity rating CASOB: scale 0-100
How it was run: as §2

[23] = system: velvetleaf (Abutilon theophrasti, ABUTH); assay: as above; conditions: 14 days after application; for phytotoxicity rating ABUTH: scale 0-100
How it was run: as §2

[24] = system: lambsquarters (Chenopodium album, CHEAL); assay: as above; conditions: 14 days after application; for phytotoxicity rating CHEAL: scale 0-100
How it was run: as §2

[25] = system: large crabgrass (Digitaria sanguinalis, DIGSA); assay: as above; conditions: 14 days after application; for phytotoxicity rating DIGSA: scale 0-100
How it was run: as §2

[26] = system: green foxtail (Setaria viridis, SETVI); assay: as above; conditions: 14 days after application; for phytotoxicity rating SETVI: scale 0-100
How it was run: as §2

COc1cc(OC)nc(Oc2cc(-n3c(=O)n4n(c3=S)CCCC4)c(F)cc2Cl)n1 [Compound 8-33]
RICE crop damage rating [1]: 10 | CORN crop damage rating [2]: 0 | SOY crop damage rating ([3]; Rate 125 g al/ha): 0 | SOY crop damage rating ([3]; Rate 500 g al/ha): 30 | IPOHE phytotoxicity rating ([4]; Rate 125 g al/ha): 0 | IPOHE phytotoxicity rating ([4]; Rate 500 g al/ha): 70 | AMARE phytotoxicity rating ([5]; Rate 125 g al/ha): 100 | AMARE phytotoxicity rating ([5]; Rate 500 g al/ha): 100 | ECHCG phytotoxicity rating ([6]; Rate 125 g al/ha): 0 | ECHCG phytotoxicity rating ([6]; Rate 500 g al/ha): 20 | SORHA phytotoxicity rating ([7]; Rate 125 g al/ha): 0 | SORHA phytotoxicity rating ([7]; Rate 500 g al/ha): 40 | CASOB phytotoxicity rating ([8]; Rate 125 g al/ha): 40 | CASOB phytotoxicity rating ([8]; Rate 500 g al/ha): 90 | ABUTH phytotoxicity rating ([9]; Rate 125 g al/ha): 100 | ABUTH phytotoxicity rating ([9]; Rate 500 g al/ha): 100 | CHEAL phytotoxicity rating ([10]; Rate 125 g al/ha): 100 | CHEAL phytotoxicity rating ([10]; Rate 500 g al/ha): 100 | DIGSA phytotoxicity rating ([11]; Rate 125 g al/ha): 10 | DIGSA phytotoxicity rating ([11]; Rate 500 g al/ha): 90 | SETVI phytotoxicity rating ([12]; Rate 125 g al/ha): 80 | SETVI phytotoxicity rating ([12]; Rate 500 g al/ha): 100 | AMBEL phytotoxicity rating ([13]; Rate 125 g al/ha): 0 | AMBEL phytotoxicity rating ([13]; Rate 500 g al/ha): 40 | crop damage rating SOY ([14]; rate 63 g ai/ha): 55 | crop damage rating SOY ([14]; rate 500 g ai/ha): 70 | crop damage rating RICE ([15]; rate 63 g ai/ha): 0 | crop damage rating RICE ([15]; rate 500 g ai/ha): 10 | crop damage rating CORN ([16]; rate 63 g ai/ha): 5 | crop damage rating CORN ([16]; rate 500 g ai/ha): 15 | phytotoxicity rating AMBEL ([17]; rate 63 g ai/ha): 60 | phytotoxicity rating AMBEL ([17]; rate 500 g ai/ha): 100 | phytotoxicity rating IPOHE ([18]; rate 63 g ai/ha): 90 | phytotoxicity rating IPOHE ([18]; rate 500 g ai/ha): 100 | phytotoxicity rating AMARE ([19]; rate 63 g ai/ha): 95 | phytotoxicity rating AMARE ([19]; rate 500 g ai/ha): 100 | phytotoxicity rating ECHCG ([20]; rate 63 g ai/ha): 20 | phytotoxicity rating ECHCG ([20]; rate 500 g ai/ha): 40 | phytotoxicity rating SORHA ([21]; rate 63 g ai/ha): 10 | phytotoxicity rating SORHA ([21]; rate 500 g ai/ha): 30 | phytotoxicity rating CASOB ([22]; rate 63 g ai/ha): 55 | phytotoxicity rating CASOB ([22]; rate 500 g ai/ha): 95 | phytotoxicity rating ABUTH ([23]; rate 63 g ai/ha): 100 | phytotoxicity rating ABUTH ([23]; rate 500 g ai/ha): 100 | phytotoxicity rating CHEAL ([24]; rate 63 g ai/ha): 90 | phytotoxicity rating CHEAL ([24]; rate 500 g ai/ha): 100 | phytotoxicity rating DIGSA ([25]; rate 63 g ai/ha): 0 | phytotoxicity rating DIGSA ([25]; rate 500 g ai/ha): 50 | phytotoxicity rating SETVI ([26]; rate 63 g ai/ha): 20 | phytotoxicity rating SETVI ([26]; rate 500 g ai/ha): 80

O=c1n(CCCF)nnn1-c1cc(Oc2ccc(C(F)(F)F)cn2)c(Cl)cc1F [Compound 6-8]
crop damage rating RICE ([1]; 500 g ai/ha): 10 | crop damage rating CORN ([2]; 500 g ai/ha): 0 | crop damage rating SOY ([3]; 500 g ai/ha): 0 | phytotoxicity rating IPOHE ([4]; 500 g ai/ha): 0 | phytotoxicity rating AMARE ([5]; 500 g ai/ha): 85 | phytotoxicity rating ECHCG ([6]; 500 g ai/ha): 0 | phytotoxicity rating SORHA ([7]; 500 g ai/ha): 80 | phytotoxicity rating CASOB ([8]; 500 g ai/ha): 0 | phytotoxicity rating ABUTH ([9]; 500 g ai/ha): 80 | phytotoxicity rating CHEAL ([10]; 500 g ai/ha): 100 | phytotoxicity rating DIGSA ([11]; 500 g ai/ha): 75 | phytotoxicity rating SETVI ([12]; 500 g ai/ha): 100 | phytotoxicity rating AMBEL ([13]; 500 g ai/ha): 0 | SOY crop damage rating (0-100) ([14]; 500 g al/ha): 60 | RICE crop damage rating (0-100) ([15]; 500 g al/ha): 35 | CORN crop damage rating (0-100) ([16]; 500 g al/ha): 5 | AMBEL phytotoxicity rating (0-100) ([17]; 500 g al/ha): 20 | IPOHE phytotoxicity rating (0-100) ([18]; 500 g al/ha): 60 | AMARE phytotoxicity rating (0-100) ([19]; 500 g al/ha): 80 | ECHCG phytotoxicity rating (0-100) ([20]; 500 g al/ha): 10 | SORHA phytotoxicity rating (0-100) ([21]; 500 g al/ha): 10 | CASOB phytotoxicity rating (0-100) ([22]; 500 g al/ha): 40 | ABUTH phytotoxicity rating (0-100) ([23]; 500 g al/ha): 98 | CHEAL phytotoxicity rating (0-100) ([24]; 500 g al/ha): 95 | DIGSA phytotoxicity rating (0-100) ([25]; 500 g al/ha): 20 | SETVI phytotoxicity rating (0-100) ([26]; 500 g al/ha): 90

O=c1n(-c2cc(Oc3cccc(Cl)n3)c(Cl)cc2F)c(=S)n2n1CCCC2 [Compound 8-26]
RICE crop damage rating [1]: 0 | CORN crop damage rating [2]: 0 | SOY crop damage rating ([3]; Rate 500 g al/ha): 0 | IPOHE phytotoxicity rating ([4]; Rate 500 g al/ha): 0 | AMARE phytotoxicity rating ([5]; Rate 500 g al/ha): 0 | ECHCG phytotoxicity rating ([6]; Rate 500 g al/ha): 0 | SORHA phytotoxicity rating ([7]; Rate 500 g al/ha): 0 | CASOB phytotoxicity rating ([8]; Rate 500 g al/ha): 0 | ABUTH phytotoxicity rating ([9]; Rate 500 g al/ha): 0 | CHEAL phytotoxicity rating ([10]; Rate 500 g al/ha): 0 | DIGSA phytotoxicity rating ([11]; Rate 500 g al/ha): 0 | SETVI phytotoxicity rating ([12]; Rate 500 g al/ha): 0 | AMBEL phytotoxicity rating ([13]; Rate 500 g al/ha): 0 | crop damage rating SOY ([14]; rate 500 g ai/ha): 0 | crop damage rating RICE ([15]; rate 500 g ai/ha): 0 | crop damage rating CORN ([16]; rate 500 g ai/ha): 0 | phytotoxicity rating AMBEL ([17]; rate 500 g ai/ha): 0 | phytotoxicity rating IPOHE ([18]; rate 500 g ai/ha): 0 | phytotoxicity rating AMARE ([19]; rate 500 g ai/ha): 0 | phytotoxicity rating ECHCG ([20]; rate 500 g ai/ha): 0 | phytotoxicity rating SORHA ([21]; rate 500 g ai/ha): 0 | phytotoxicity rating CASOB ([22]; rate 500 g ai/ha): 0 | phytotoxicity rating ABUTH ([23]; rate 500 g ai/ha): 0 | phytotoxicity rating CHEAL ([24]; rate 500 g ai/ha): 0 | phytotoxicity rating DIGSA ([25]; rate 500 g ai/ha): 0 | phytotoxicity rating SETVI ([26]; rate 500 g ai/ha): 0
